Columns and labels:
Conditions in all cases: 50 mM Tris-HCl pH 8.0, 10 μM MgCl2, 30 °C, 10 min, FPP 2-80 μM
AaFS [1] = biological target: T1, AaFS (Artemisia annua, UniProt Q9FXY7)
T1 construct: gene CASC125
Description: (§1) steady-state kinetics, product quantified by peak area after hexane extraction on AaFS

AaFS [2] = biological target: T2, AaFS (Artemisia annua, UniProt Q9FXY7, M436I, form not given)
T2 construct: gene CASC125
Description: as §1

AaFS [3] = biological target: T3, AaFS (Artemisia annua, UniProt Q9FXY7, L326I, form not given)
T3 construct: gene CASC125
T3 sequence (Q9FXY7 whole entry L326I, form open): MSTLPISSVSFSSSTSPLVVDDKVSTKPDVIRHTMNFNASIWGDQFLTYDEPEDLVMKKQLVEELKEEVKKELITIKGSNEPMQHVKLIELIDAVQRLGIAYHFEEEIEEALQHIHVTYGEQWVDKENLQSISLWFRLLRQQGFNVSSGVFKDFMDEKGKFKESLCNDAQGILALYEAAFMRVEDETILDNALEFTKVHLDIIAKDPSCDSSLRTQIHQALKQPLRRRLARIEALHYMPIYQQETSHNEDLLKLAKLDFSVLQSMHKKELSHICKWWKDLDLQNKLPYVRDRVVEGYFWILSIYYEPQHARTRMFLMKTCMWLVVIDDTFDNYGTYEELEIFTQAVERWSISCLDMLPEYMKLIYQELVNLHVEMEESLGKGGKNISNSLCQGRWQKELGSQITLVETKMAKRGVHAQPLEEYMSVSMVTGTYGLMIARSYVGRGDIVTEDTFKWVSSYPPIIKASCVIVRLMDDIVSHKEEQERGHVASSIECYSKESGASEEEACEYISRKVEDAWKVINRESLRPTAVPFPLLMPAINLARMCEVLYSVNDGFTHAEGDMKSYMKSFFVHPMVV
Description: as §1

AaFS [4] = biological target: T4, AaFS (Artemisia annua, UniProt Q9FXY7, W299C, form not given)
T4 construct: gene CASC125
T4 sequence (Q9FXY7 whole entry W299C, form open): as the sequence (Q9FXY7 whole entry L326I, form open) above, with W299C, I326L counted along it
Description: as §1

T1 sequence (Q9FXY7 whole entry): as the sequence (Q9FXY7 whole entry L326I, form open) above, with I326L counted along it
T2 sequence (Q9FXY7 whole entry M436I, form open): as the sequence (Q9FXY7 whole entry L326I, form open) above, with I326L, M436I counted along it

**Q.** With `CC(C)=CCC/C(C)=C/CC/C(C)=C/CO[P@@](=O)(O)OP(=O)(O)O` (stereo in doubt) [FPP, farnesyl pyrophosphate] as the molecule, how does the Km (AaFS [1]) read?
**A.** 14.3 ± 2.3 µM

**Q.** What about the Km (AaFS [2]) of the same molecule?
**A.** 7.64 ± 4.8 µM

**Q.** What about the Km (AaFS [3]) of the same molecule?
**A.** 6.75 ± 3.7 µM

**Q.** And the Km (AaFS [4])?
**A.** 21.3 ± 1.8 µM

— article PMC11638952, “Fine-Tuning the Function of Farnesene Synthases for Selective Synthesis of Farnesene Stereoisomers” (Journal of Agricultural and Food Chemistry, 2024)
